Source: PubChem BioAssay (NCI)
“And” between values parts separate entries of the source, which are not always exact repeats. Identical values can stand only once.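 Each compound was tested at five concentrations against cells in 96-well plates for 48 hours. GI50: concentration for 50% inhibition of growth. TGI: total growth inhibition.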

Experiments:
Experiment in all cases: NCI-60 cell line screen, 48 h
MALME-3M melanoma = system: MALME-3M melanoma
HCT-15 colon = system: HCT-15 colon
HL-60(TB) leukemia = system: HL-60(TB) leukemia
M14 melanoma = system: M14 melanoma
ACHN renal = system: ACHN renal
SK-MEL-2 melanoma = system: SK-MEL-2 melanoma
PC-3 prostate = system: PC-3 prostate
SF-539 CNS = system: SF-539 CNS
SNB-19 CNS = system: SNB-19 CNS
COLO 205 colon = system: COLO 205 colon
CAKI-1 renal = system: CAKI-1 renal
UACC-62 melanoma = system: UACC-62 melanoma
MDA-MB-435 = system: MDA-MB-435
HT29 colon = system: HT29 colon
KM12 colon = system: KM12 colon
LOX IMVI melanoma = system: LOX IMVI melanoma
MDA-N = system: MDA-N

Structure (SMILES) | TGI (MALME-3M melanoma) | TGI (HCT-15 colon) [µM] | TGI (HL-60(TB) leukemia) [µM] | TGI (M14 melanoma) [µM] | TGI (ACHN renal) | TGI (SK-MEL-2 melanoma) [µM] | TGI (PC-3 prostate) [µM] | TGI (SF-539 CNS) [µM] | TGI (SNB-19 CNS) [µM] | TGI (COLO 205 colon) [µM] | TGI (CAKI-1 renal) [µM] | TGI (UACC-62 melanoma) | TGI (MDA-MB-435) [µM] | TGI (HT29 colon) [µM] | TGI (KM12 colon) [µM] | TGI (LOX IMVI melanoma) | GI50 (MALME-3M melanoma) [µM] | GI50 (ACHN renal) [µM] | GI50 (SK-MEL-2 melanoma) [µM] | TGI (MDA-N) [µM]
COc1cc(/C=N/N=C(\N)NO)cc(OC)c1OC | 82.7 µM | > 100 | 42.1 | > 100 | 72 µM | > 100 | > 100 | 75.7 | > 100 | > 100 | > 100 | 50.5 µM | > 100 | > 100 | > 100 | > 100 µM | – | – | – | –
COc1cc(C(=O)N[C@H]2CCc3cc(OC)c(OC)c(OC)c3-c3ccc(SC)c(=O)cc32)cc(OC)c1OC | 17.5 µM and 14.9 µM | 25 | 0.578 | – | 25 µM and > 100 µM | – | – | 0.0145 | > 100 | – | – | 25 µM and > 100 µM | – | > 100 | 16.4 | 25 µM and 19.2 µM | 0.0224 | 0.0804 | 0.02 | –
O=c1[nH]nc(Cc2ccccc2)n1/N=C/c1ccco1 | > 100 µM | > 100 | – | > 100 | > 100 µM | > 100 | > 100 | > 100 | > 100 | > 100 | > 100 | > 100 µM | > 100 | > 100 | > 100 | > 100 µM | – | – | – | –
COc1ccc2cc(CNCCCCCCCCNCc3ccc4cc(OC)ccc4c3)ccc2c1 | – | > 100 | 15.2 | – | 10.3 µM | 24.7 | 6.91 | – | 7.83 | 29.6 | > 100 | 3.79 µM | 9.83 | 8.46 | – | 43.4 µM | – | – | – | –
Cc1ccc(S(=O)C[C@](NC(=O)OCc2ccccc2)(Sc2ccccc2)C(F)F)cc1 (stereo not given in full) | 47.6 µM | 40.3 | 24.9 | > 100 | 45.5 µM | 71.6 | 74.2 | – | 31.3 | 35.9 | 50.4 | 29.9 µM | 79.6 | 31.1 | 31.9 | 19.4 µM | – | – | – | –
COC(=O)CCC1(CCC(=O)OC)CCCCCCC(CCC(=O)OC)(CCC(=O)OC)C(=O)C1=O | > 100 µM | > 100 | – | > 100 | > 100 µM | > 100 | > 100 | > 100 | > 100 | > 100 | > 100 | > 100 µM | > 100 | > 100 | > 100 | > 100 µM | – | – | – | > 100
COc1ccc(-c2c(-c3ccc(OC)cc3)n3c(=O)n(C)c(=O)n23)cc1 | > 100 µM | > 100 | – | > 100 | > 100 µM | > 100 | > 100 | 72.9 | 97.7 | > 100 | > 100 | > 100 µM | > 100 | – | > 100 | > 100 µM | – | – | – | –
O=c1[nH]nc(-c2ccccc2)n1/N=C/c1cccc([N+](=O)[O-])c1 | > 100 µM | > 100 | > 100 | > 100 | > 100 µM | > 100 | > 100 | > 100 | > 100 | > 100 | > 100 | > 100 µM | > 100 | > 100 | > 100 | > 100 µM | – | – | – | –
CCOP(=O)(OCC)/C(C#N)=C/c1ccccn1 | > 100 µM | > 100 | > 100 | > 100 | > 100 µM | – | – | > 100 | > 100 | > 100 | > 100 | > 100 µM | > 100 | > 100 | > 100 | > 100 µM | – | – | – | > 100
CC1(C)CO[P@@](=S)(c2ccccn2)O[C@@H]1c1ccccc1 | > 100 µM | > 100 | > 100 | > 100 | > 100 µM | – | > 100 | – | > 100 | > 100 | > 100 | > 100 µM | > 100 | > 100 | > 100 | > 100 µM | – | – | – | > 100
CC(=O)O[C@H]1CC[C@@]2(C)C(=CC[C@@H]3[C@@H]2CC[C@]2(C)c4c(n[nH]c4C)C[C@@H]32)C1 | 12.7 µM | 34.2 | 28.4 | 37.3 | 43.5 µM | – | 58.2 | – | 42.3 | 35.4 | 32.5 | 25 µM | 33.9 | 23.5 | 37.4 | > 100 µM | – | – | – | 46.6
N#CCCN(CCC#N)c1ccc(/C=C2\N=C(c3ccccc3)N(c3ccc(C(=O)O)cc3)C2=O)cc1 | – | > 100 | – | > 100 | > 100 µM | > 100 | > 100 | 61.5 | > 100 | > 100 | – | 67.5 µM | > 100 | > 100 | 31 | 93.2 µM | – | – | – | > 100
CC(C)(C)OC(=O)N1NC(c2ccccc2)CC1c1ccccc1 (stereo not given) | – | 60.1 | – | 58.8 | 68.6 µM | – | – | > 100 | – | 41.2 | > 100 | 88.1 µM | 65.3 | > 100 | 41.9 | – | – | – | – | > 100
CCc1ccc2[nH]c(O)c(C3=Nc4ccccc4C3=O)c2c1 | > 100 µM | > 100 | – | > 100 | 24.8 µM | 43.7 | 50.1 | – | 31.2 | > 100 | > 100 | 43.3 µM | > 100 | > 100 | > 100 | > 100 µM | – | – | – | > 100
Cc1ccc2nc3n[nH]c(N)c3nc2c1 | > 100 µM | > 100 | – | > 100 | > 100 µM | > 100 | > 100 | > 100 | > 100 | > 100 | > 100 | > 100 µM | > 100 | > 100 | > 100 | > 100 µM | – | – | – | > 100
COc1cccc(-c2cc(=O)c3cc4c(cc3[nH]2)OCO4)c1 | > 67.6 µM | 8.25 | 0.896 | 2.95 | > 48.2 µM | 3.77 | – | 0.317 | > 45.1 | 0.303 | – | > 100 µM | – | 2.37 | – | > 100 µM | – | – | – | –
